Assay results as given in a compilation of properties of binary mixtures (doi:10.1016/j.fluid.2015.06.043).

Assay: xn = mol fraction of the nth substance listed
Details: 101 kPa

For O + CC[n+]1ccccc1.O=S(=O)([O-])C(F)(F)F, the viscosity (298.15 K, x2 = 0) was 0.89 mPa·s, the viscosity (303.15 K, x2 = 0) was 0.8 mPa·s and the viscosity (313.15 K, x2 = 0) was 0.65 mPa·s. The viscosity (333.15 K, x2 = 0) was 0.47 mPa·s and the viscosity (343.15 K, x2 = 0) was 0.4 mPa·s.

Work on CC[n+]1ccccc1.O=S(=O)([N-]S(=O)(=O)C(F)(F)F)C(F)(F)F + O yielded a viscosity (283.15 K, x2 = 0.0043) of 78.6 mPa·s, a viscosity (283.15 K, x2 = 0.087) of 64.3 mPa·s and a viscosity (293.15 K, x2 = 0.0043) of 49.9 mPa·s. It also gave a viscosity (293.15 K, x2 = 0.087) of 41.7 mPa·s, a viscosity (298.15 K, x2 = 0.0043) of 40.1 mPa·s and a viscosity (303.15 K, x2 = 0.0043) of 33.3 mPa·s. The viscosity (303.15 K, x2 = 0.087) was 28.4 mPa·s, the viscosity (313.15 K, x2 = 0.0043) was 24 mPa·s and the viscosity (313.15 K, x2 = 0.087) was 20.6 mPa·s. For the same compound, the viscosity (333.15 K, x2 = 0.0043) was 13.7 mPa·s, the viscosity (333.15 K, x2 = 0.087) was 12.15 mPa·s and the viscosity (343.15 K, x2 = 0.0043) was 10.88 mPa·s. The viscosity (353.15 K, x2 = 0.087) was 7.92 mPa·s.

Compound CC[n+]1ccccc1.O=S(=O)([O-])C(F)(F)F + O has a viscosity (293.15 K, x1 = 0.183) of 5.3 mPa·s, a viscosity (293.15 K, x1 = 0.498) of 17.7 mPa·s and a viscosity (293.15 K, x1 = 0.689) of 33.4 mPa·s. For the same compound, the viscosity (293.15 K, x1 = 0.893) was 65.7 mPa·s, the viscosity (293.15 K, x1 = 1) was 75.2 mPa·s and the viscosity (298.15 K, x1 = 0.183) was 4.6 mPa·s. The viscosity (298.15 K, x1 = 0.689) was 27.8 mPa·s, the viscosity (298.15 K, x1 = 0.893) was 53.2 mPa·s and the viscosity (298.15 K, x1 = 1) was 60.6 mPa·s. The viscosity (303.15 K, x1 = 0.067) was 1.9 mPa·s, the viscosity (303.15 K, x1 = 0.183) was 4.03 mPa·s and the viscosity (303.15 K, x1 = 0.498) was 13 mPa·s. It also gave a viscosity (303.15 K, x1 = 0.689) of 23.5 mPa·s, a viscosity (303.15 K, x1 = 0.893) of 43.7 mPa·s and a viscosity (303.15 K, x1 = 1) of 48.8 mPa·s. For the same compound, the viscosity (313.15 K, x1 = 0.067) was 1.5 mPa·s, the viscosity (313.15 K, x1 = 0.183) was 3.16 mPa·s and the viscosity (313.15 K, x1 = 0.498) was 9.96 mPa·s. The viscosity (313.15 K, x1 = 0.893) was 30.8 mPa·s, the viscosity (313.15 K, x1 = 1) was 33.8 mPa·s and the viscosity (323.15 K, x1 = 0.067) was 1.22 mPa·s. It also gave a viscosity (323.15 K, x1 = 0.183) of 2.55 mPa·s, a viscosity (323.15 K, x1 = 0.498) of 7.86 mPa·s and a viscosity (323.15 K, x1 = 0.689) of 13.26 mPa·s. For the same compound, the viscosity (323.15 K, x1 = 0.893) was 22.5 mPa·s, the viscosity (323.15 K, x1 = 1) was 24.5 mPa·s and the viscosity (333.15 K, x1 = 0.067) was 1.02 mPa·s. The viscosity (333.15 K, x1 = 0.183) was 2.1 mPa·s, the viscosity (333.15 K, x1 = 0.498) was 6.34 mPa·s and the viscosity (333.15 K, x1 = 0.689) was 10.46 mPa·s. It also gave a viscosity (333.15 K, x1 = 0.893) of 17.1 mPa·s, a viscosity (333.15 K, x1 = 1) of 18.2 mPa·s and a viscosity (343.15 K, x1 = 0.183) of 1.76 mPa·s. The viscosity (343.15 K, x1 = 0.498) was 5.24 mPa·s, the viscosity (343.15 K, x1 = 0.893) was 13.4 mPa·s and the viscosity (343.15 K, x1 = 1) was 14.05 mPa·s. It also gave a viscosity (353.15 K, x1 = 0.498) of 4.41 mPa·s, a viscosity (353.15 K, x1 = 0.689) of 6.92 mPa·s and a viscosity (353.15 K, x1 = 1) of 11.13 mPa·s.
